{"source": "ChEMBL document CHEMBL1133626", "about": "“GRid-INdependent descriptors (GRIND): a novel class of alignment-independent three-dimensional molecular descriptors” (J Med Chem, 2000)", "key": {"[1]": {"biological_target": "5-hydroxytryptamine receptor 2A (Rattus norvegicus, UniProt P14842)", "sequence (P14842 whole entry)": "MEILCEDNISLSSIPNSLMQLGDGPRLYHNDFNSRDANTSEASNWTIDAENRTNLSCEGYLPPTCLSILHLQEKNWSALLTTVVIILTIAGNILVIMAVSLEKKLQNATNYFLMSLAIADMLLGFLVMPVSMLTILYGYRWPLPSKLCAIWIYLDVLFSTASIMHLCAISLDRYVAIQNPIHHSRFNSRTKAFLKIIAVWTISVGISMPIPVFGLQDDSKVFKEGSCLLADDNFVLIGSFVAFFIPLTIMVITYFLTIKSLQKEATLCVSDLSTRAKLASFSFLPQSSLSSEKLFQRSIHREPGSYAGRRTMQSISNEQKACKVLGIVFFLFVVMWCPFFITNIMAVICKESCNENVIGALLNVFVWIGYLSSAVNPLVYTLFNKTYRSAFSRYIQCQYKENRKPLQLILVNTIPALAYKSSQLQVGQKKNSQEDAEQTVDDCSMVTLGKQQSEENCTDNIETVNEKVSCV", "test": "Kinetic inhibition constant evaluated by measuring serotonergic activity"}, "[2]": {"biological_target": "T1, Corticosteroid-binding globulin (Homo sapiens) (UniProt P08185)", "T1 sequence (whole entry)": "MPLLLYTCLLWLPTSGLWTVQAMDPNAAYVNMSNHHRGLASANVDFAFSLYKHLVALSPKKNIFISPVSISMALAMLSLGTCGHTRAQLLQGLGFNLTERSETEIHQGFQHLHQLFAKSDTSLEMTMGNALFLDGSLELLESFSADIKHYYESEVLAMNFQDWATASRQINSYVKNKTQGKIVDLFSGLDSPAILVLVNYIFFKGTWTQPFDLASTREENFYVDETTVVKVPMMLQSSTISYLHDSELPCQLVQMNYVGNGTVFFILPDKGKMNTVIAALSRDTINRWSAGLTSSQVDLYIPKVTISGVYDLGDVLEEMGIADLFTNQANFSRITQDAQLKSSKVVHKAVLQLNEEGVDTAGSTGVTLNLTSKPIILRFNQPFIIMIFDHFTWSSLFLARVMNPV", "test": "(§1) Binding affinity to the corticosteroid-binding globulin (CBG) receptor."}, "[3]": {"test": "Kinetic inhibition constant was evaluated by measuring the inhibition of the glycogen phosphorylase (GP)"}, "[4]": {"test": "Binding affinity of the Corticosteroid-Binding Globulin Receptor with androstenedione"}, "[5]": {"test": "as §1"}, "[6]": {"test": "Binding affinity of the Corticosteroid-Binding Globulin Receptor with dehydroepiandrosterone"}, "[7]": {"test": "Binding affinity of the Corticosteroid-Binding Globulin Receptor with cortisol"}, "[8]": {"biological_target": "T1, Corticosteroid-binding globulin (Homo sapiens)"}, "[9]": {"test": "Binding affinity of the Corticosteroid-Binding Globulin Receptor with deoxy-corticosterone"}, "[10]": {"test": "Binding affinity of the Corticosteroid-Binding Globulin Receptor with corticosterone"}, "[11]": {"test": "Binding affinity of the Corticosteroid-Binding Globulin Receptor with androstenediol"}, "[12]": {"test": "Binding affinity of the Corticosteroid-Binding Globulin Receptor with androstanediol"}, "[13]": {"test": "Binding affinity of the Corticosteroid-Binding Globulin Receptor with androsterone"}}}
{"smiles": "O=C(CCCN1CCN(CCC2CC3=CC=CC3C2=O)CC1)c1ccc(F)cc1", "note": "(centres undefined)", "values": [{"measurement": "Ki", "setting": "[1]", "value": 42.7, "unit": "nM"}]}
{"smiles": "CC(=O)[C@H]1CC[C@H]2[C@@H]3CC=C4C[C@@H](O)CC[C@]4(C)[C@H]3CC[C@]12C", "values": [{"measurement": "Log K", "setting": "[2]", "value": 5.25}]}
{"smiles": "COC(=O)C1OC(CO)C(O)C(O)C1O", "note": "(centres undefined)", "values": [{"measurement": "pKi", "setting": "[3]", "value": 2.55}, {"measurement": "Log K", "setting": "[4]", "value": 5.76}]}
{"smiles": "CC(=O)[C@H]1CC[C@H]2[C@@H]3CCC4=CC(=O)CC[C@@H]4[C@H]3CC[C@]12C", "values": [{"measurement": "Log K", "setting": "[2]", "value": 7.12}]}
{"smiles": "C[C@]12CC[C@H](O)C[C@@H]1CC[C@@H]1[C@@H]2CC[C@]2(C)[C@@H](O)CC[C@@H]12", "values": [{"measurement": "Log K", "setting": "[2]", "value": 5}]}
{"smiles": "CC(=O)[C@@]1(O)CC[C@H]2[C@@H]3CCC4=CC(=O)CC[C@]4(C)[C@H]3CC[C@@]21C", "values": [{"measurement": "Log K", "setting": "[2]", "value": 7.74}]}
{"smiles": "CC(=O)OCC(=O)[C@@]1(O)CC[C@H]2[C@@H]3CCC4=CC(=O)CC[C@]4(C)[C@H]3[C@@H](O)C[C@@]21C", "values": [{"measurement": "Log K", "setting": "[2]", "value": 7.55}]}
{"smiles": "C[C@]12C[C@H](O)[C@H]3[C@@H](CCC4=CC(=O)CC[C@@]43C)[C@@H]1CC[C@@H]2C(=O)CO", "values": [{"measurement": "Log K", "setting": "[2]", "value": 7.88}]}
{"smiles": "C[C@]12C=CC(=O)C=C1CC[C@@H]1[C@@H]2[C@@H](O)C[C@@]2(C)[C@H]1CC[C@]2(O)C(=O)CO", "values": [{"measurement": "Log K", "setting": "[5]", "value": 6.72}]}
{"smiles": "C[C@]12C[C@@H](O)[C@H]3[C@@H](CCC4=CC(=O)CC[C@@]43C)[C@@H]1CC[C@@H]2C(=O)CO", "values": [{"measurement": "Log K", "setting": "[5]", "value": 6.78}]}
{"smiles": "CC(=O)[C@@]1(O)CC[C@H]2[C@@H]3CC[C@@H]4C[C@H](O)CC[C@]4(C)[C@H]3CC[C@@]21C", "values": [{"measurement": "Log K", "setting": "[2]", "value": 5}]}
{"smiles": "NN1C(=O)N[C@@]2(O[C@@H](CO)[C@@H](O)[C@H](O)[C@@H]2O)C1=O", "values": [{"measurement": "pKi", "setting": "[3]", "value": 3.84}, {"measurement": "Log K", "setting": "[6]", "value": 5}]}
{"smiles": "COC(=O)N[C@]1(C(N)=O)O[C@H](CO)[C@@H](O)[C@H](O)[C@H]1O", "values": [{"measurement": "pKi", "setting": "[3]", "value": 4.8}, {"measurement": "Log K", "setting": "[7]", "value": 7.88}]}
{"smiles": "CC(=O)[C@H]1CC[C@H]2[C@@H]3CCC4=CC(=O)CC[C@]4(C)[C@H]3CC[C@]12C", "values": [{"measurement": "Log Ki", "setting": "[8]", "value": 7.38, "unit": "mM"}]}
{"smiles": "C[C@]12CC[C@H]3[C@@H](CCC4=CC(=O)CC[C@@]43C)[C@@H]1CC[C@@H]2C(=O)CO", "values": [{"measurement": "Log K", "setting": "[2]", "value": 7.65}]}
{"smiles": "C[C@]12CCC(=O)C=C1CC[C@@H]1[C@@H]2CC[C@]2(C)C(=O)CC[C@@H]12", "values": [{"measurement": "Log K", "setting": "[2]", "value": 5.76}]}
{"smiles": "CC(=O)[C@H]1CC[C@H]2[C@@H]3CCC4=CC(=O)CC[C@]4(C)[C@H]3C(=O)C[C@]12C", "values": [{"measurement": "Log K", "setting": "[2]", "value": 6.78}]}
{"smiles": "O=C1CNC(=O)[C@@]2(N1)O[C@@H](CO)[C@@H](O)[C@H](O)[C@@H]2O", "values": [{"measurement": "pKi", "setting": "[3]", "value": 4.22}, {"measurement": "Log K", "setting": "[9]", "value": 7.65}]}
{"smiles": "NC(=O)N[C@H]1O[C@H](CO)[C@@H](O)[C@H](O)[C@H]1O", "values": [{"measurement": "pKi", "setting": "[3]", "value": 3.85}, {"measurement": "Log K", "setting": "[10]", "value": 7.88}]}
{"smiles": "O=C(c1ccc(F)cc1)C1CCN(CCC2CC3=CC=CC3C2=O)CC1", "note": "(centres undefined)", "values": [{"measurement": "Ki", "setting": "[1]", "value": 7.08, "unit": "nM"}]}
{"smiles": "C[C@]12CCC(=O)C=C1CC[C@@H]1[C@@H]2CC[C@@]2(C)[C@H]1CC[C@]2(O)C(=O)CO", "values": [{"measurement": "Log K", "setting": "[5]", "value": 7.88}]}
{"smiles": "C[C@]12CCC(=O)C=C1CC[C@@H]1[C@@H]2[C@@H](O)C[C@]2(C=O)[C@@H](C(=O)CO)CC[C@@H]12", "values": [{"measurement": "Log K", "setting": "[5]", "value": 6.28}]}
{"smiles": "CC(=O)C1[C@H](C)CC2C3CC=C4CC(=O)CCC4(C)C3CCC21C", "note": "(some centres undefined)", "values": [{"measurement": "Log K", "setting": "[2]", "value": 6.25}]}
{"smiles": "NC(=O)C1OC(CO)C(O)C(O)C1O", "note": "(stereo in doubt; 3)", "values": [{"measurement": "pKi", "setting": "[3]", "value": 3.36}, {"measurement": "Log K", "setting": "[11]", "value": 5}]}
{"smiles": "C[C@]12CC[C@H]3[C@@H](CCC4=CC(=O)CC[C@@]43C)[C@@H]1CC[C@@H]2O", "values": [{"measurement": "Log K", "setting": "[2]", "value": 6.72}]}
{"smiles": "CC(=O)[C@@]1(O)[C@H](O)C[C@H]2[C@@H]3CC=C4CC(=O)CC[C@]4(C)[C@H]3CC[C@@]21C", "values": [{"measurement": "Log K", "setting": "[2]", "value": 6.14}]}
{"smiles": "C[C@]12CC[C@@H]3c4ccc(O)cc4CC[C@H]3[C@@H]1CC[C@@H]2O", "values": [{"measurement": "Log K", "setting": "[2]", "value": 5}]}
{"smiles": "O=C1C(CCN2CCC(c3noc4cc(F)ccc34)CC2)CC2=CC=CC12", "note": "(centres undefined)", "values": [{"measurement": "Ki", "setting": "[1]", "value": 1.74, "unit": "nM"}]}
{"smiles": "C[C@]12CC[C@H](O)CC1=CC[C@@H]1[C@@H]2CC[C@]2(C)C(=O)CC[C@@H]12", "values": [{"measurement": "Log K", "setting": "[2]", "value": 5}]}
{"smiles": "C[C@]12CCC(=O)C=C1CC[C@@H]1[C@@H]2C(=O)C[C@@]2(C)[C@H]1CC[C@]2(O)C(=O)CO", "values": [{"measurement": "Log K", "setting": "[2]", "value": 6.89}]}
{"smiles": "NC(=O)C1OC(CO)C(O)C(O)C1O", "note": "(stereo in doubt; 2)", "values": [{"measurement": "pKi", "setting": "[3]", "value": 3.43}, {"measurement": "Log K", "setting": "[12]", "value": 5}]}
{"smiles": "N#CC[C@@H]1O[C@H](CO)[C@@H](O)[C@H](O)[C@H]1O", "values": [{"measurement": "pKi", "setting": "[3]", "value": 2.05}, {"measurement": "Log K", "setting": "[13]", "value": 5.61}]}
{"smiles": "C[C@@H]1C[C@@]2(C)C(=CC1=O)CC[C@H]1[C@@H]3CC[C@](O)(C(=O)CO)[C@@]3(C)C[C@H](O)[C@@]12F", "values": [{"measurement": "Log K", "setting": "[2]", "value": 5.8}]}
{"smiles": "C[C@]12CCC(=O)C=C1CC[C@@H]1[C@@H]2[C@@H](O)C[C@@]2(C)[C@H]1CC[C@]2(O)C(=O)CO", "values": [{"measurement": "Log K", "setting": "[2]", "value": 7.88}]}
{"smiles": "C[C@]12CC[C@H]3[C@@H](CCC4=CC(=O)CC[C@@H]43)[C@@H]1CC[C@@H]2O", "values": [{"measurement": "Log K", "setting": "[2]", "value": 7.2}]}
{"smiles": "C[C@]12CC[C@@H]3c4ccc(O)cc4CC[C@H]3[C@@H]1C[C@@H](O)[C@@H]2O", "values": [{"measurement": "Log K", "setting": "[2]", "value": 5}]}
